Experimental data from ChEMBL document CHEMBL5512688 (J Med Chem, 2024).

How the values were obtained:
[1] = AUC (0 to 24 hrs) in ICR mouse at 60 mg/kg, IG measured upto 24 hrs by LC-MS/MS analysis; assay type: ADME, organism-based; settings: in vivo, po
[2] = system: A-427; assay: Induction of apoptosis in human A-427 cells assessed as early apoptotic cells at 400 nM measured for 48 hrs by Annexin V/PI double staining based flow cytometry analysis (reference value: 1.96%); assay type: functional
[3] = system: A-427; assay: Induction of cell cycle arrest in human A-427 cells assessed as accumulation of cells at G2/M phase at 50 nM measured for 48 hrs by flow cytometry analysis (reference value: 10.9 %); assay type: functional
[4] = biological target: T1, Wee1-like protein kinase (Homo sapiens, UniProt P30291); assay: Inhibition of human Wee1 (215 to 647 residues) using polyornithine/tyrosine (4:1) as substrate incubated for 5 mins in presence of ATP by micro beta plate reader analysis
[5] = system: A-427; assay: Induction of cell cycle arrest in human A-427 cells assessed as accumulation of cells at S phase at 200 nM measured for 48 hrs by flow cytometry analysis (reference value: 4 %); assay type: functional
[6] = system: A-427; assay: Induction of apoptosis in human A-427 cells assessed as necrotic cells at 800 nM measured for 48 hrs by Annexin V/PI double staining based flow cytometry analysis (reference value: 0.098%); assay type: functional
[7] = system: A-427; assay: Induction of cell cycle arrest in human A-427 cells assessed as accumulation of cells at G2/M phase at 200 nM measured for 48 hrs by flow cytometry analysis (reference value: 10.9 %); assay type: functional
[8] = Half life in ICR mouse at 60 mg/kg, IG measured upto 24 hrs by LC-MS/MS analysis; assay type: ADME, organism-based; settings: in vivo, po
[9] = system: A-427; assay: Induction of apoptosis in human A-427 cells assessed as viable cells at 800 nM measured for 48 hrs by Annexin V/PI double staining based flow cytometry analysis (reference value: 97.7%); assay type: functional; settings: read-out: Activity
[10] = system: A-427; assay: Induction of apoptosis in human A-427 cells assessed as early apoptotic cells at 800 nM measured for 48 hrs by Annexin V/PI double staining based flow cytometry analysis (reference value: 1.96%); assay type: functional
[11] = system: A-427; assay: Induction of apoptosis in human A-427 cells assessed as viable cells at 200 nM measured for 48 hrs by Annexin V/PI double staining based flow cytometry analysis (reference value: 97.7%); assay type: functional; settings: read-out: Activity
[12] = system: A-427; assay: Induction of cell cycle arrest in human A-427 cells assessed as accumulation of cells at G2/M phase at 400 nM measured for 48 hrs by flow cytometry analysis (reference value: 10.9 %); assay type: functional
[13] = AUC (0 to 24 hrs) in ICR mouse at 1 mg/kg, iv measured upto 24 hrs by LC-MS/MS analysis; assay type: ADME, organism-based; settings: in vivo
[14] = biological target: T2, Mitogen-activated protein kinase kinase kinase 19 (Homo sapiens) (UniProt Q56UN5); assay: Inhibition of MAP3K19 (unknown origin) at 1 uM relative to control
T2 sequence (whole entry): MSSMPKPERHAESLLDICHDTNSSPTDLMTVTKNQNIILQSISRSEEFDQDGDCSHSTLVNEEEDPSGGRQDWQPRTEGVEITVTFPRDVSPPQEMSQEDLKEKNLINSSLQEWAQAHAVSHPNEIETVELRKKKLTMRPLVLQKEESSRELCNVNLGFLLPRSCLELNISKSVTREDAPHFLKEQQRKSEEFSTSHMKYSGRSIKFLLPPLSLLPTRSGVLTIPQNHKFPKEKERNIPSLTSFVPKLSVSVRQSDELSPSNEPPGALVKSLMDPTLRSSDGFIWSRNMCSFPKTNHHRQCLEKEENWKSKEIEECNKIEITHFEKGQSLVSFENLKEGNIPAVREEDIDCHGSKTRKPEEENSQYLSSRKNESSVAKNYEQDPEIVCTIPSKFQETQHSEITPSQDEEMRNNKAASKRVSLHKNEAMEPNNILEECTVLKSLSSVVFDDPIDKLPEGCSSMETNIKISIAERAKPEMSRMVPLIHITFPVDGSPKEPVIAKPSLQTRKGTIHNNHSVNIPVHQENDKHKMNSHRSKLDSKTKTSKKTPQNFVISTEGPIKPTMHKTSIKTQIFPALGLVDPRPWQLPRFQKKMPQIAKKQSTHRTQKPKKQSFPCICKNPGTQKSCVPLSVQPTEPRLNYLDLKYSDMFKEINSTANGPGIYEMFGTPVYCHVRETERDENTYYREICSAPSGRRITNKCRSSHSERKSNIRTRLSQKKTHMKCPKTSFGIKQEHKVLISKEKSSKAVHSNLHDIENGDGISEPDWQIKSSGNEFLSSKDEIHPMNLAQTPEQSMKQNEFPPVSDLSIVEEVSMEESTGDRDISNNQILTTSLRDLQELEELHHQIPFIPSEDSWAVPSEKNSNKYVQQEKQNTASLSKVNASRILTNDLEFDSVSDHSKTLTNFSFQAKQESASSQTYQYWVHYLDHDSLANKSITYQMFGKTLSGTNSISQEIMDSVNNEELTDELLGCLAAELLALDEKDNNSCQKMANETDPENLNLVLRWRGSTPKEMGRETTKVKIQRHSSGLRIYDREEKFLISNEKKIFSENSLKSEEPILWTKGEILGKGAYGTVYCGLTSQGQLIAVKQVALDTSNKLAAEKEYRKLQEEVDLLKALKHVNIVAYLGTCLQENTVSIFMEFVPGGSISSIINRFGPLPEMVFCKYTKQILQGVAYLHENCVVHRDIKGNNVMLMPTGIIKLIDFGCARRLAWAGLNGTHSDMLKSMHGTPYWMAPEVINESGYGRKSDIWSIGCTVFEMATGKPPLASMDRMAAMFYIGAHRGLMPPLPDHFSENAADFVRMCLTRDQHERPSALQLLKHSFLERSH

[15] = system: A-427; assay: Induction of apoptosis in human A-427 cells assessed as necrotic cells at 400 nM measured for 48 hrs by Annexin V/PI double staining based flow cytometry analysis (reference value: 0.098%); assay type: functional
[16] = Metabolic stability in mouse liver microsome assessed as parent compound remaining measured at 60 mins by LCMS/MS analysis; assay type: ADME; settings: liver microsomes, read-out: Stability
[17] = system: A-427; assay: Induction of cell cycle arrest in human A-427 cells assessed as accumulation of cells at S phase at 400 nM measured for 48 hrs by flow cytometry analysis (reference value: 4 %); assay type: functional
[18] = system: A-427; assay: Induction of apoptosis in human A-427 cells assessed as late apoptotic cells at 400 nM measured for 48 hrs by Annexin V/PI double staining based flow cytometry analysis (reference value: 0.21%); assay type: functional
[19] = system: LoVo; assay: Antitumor activity against human LoVo cells xenografted in female BALB/c nude mouse assessed as tumor growth inhibition at 60 mg/kg, IG administered once daily for 27 days; assay type: functional; settings: po, 648 h, time 27 day, read-out: TGI
[20] = biological target: T1, Wee1-like protein kinase; assay: Inhibition of Wee1 in human U2OS cells assessed as reduction in CDK1 phosphorylation measured for 1 hr by Western blot analysis; assay type: cell-based
[21] = system: A-427; assay: Induction of cell cycle arrest in human A-427 cells assessed as accumulation of cells at S phase at 50 nM measured for 48 hrs by flow cytometry analysis (reference value: 4 %); assay type: functional

T1 sequence (P30291 whole entry, the tested form may be a part): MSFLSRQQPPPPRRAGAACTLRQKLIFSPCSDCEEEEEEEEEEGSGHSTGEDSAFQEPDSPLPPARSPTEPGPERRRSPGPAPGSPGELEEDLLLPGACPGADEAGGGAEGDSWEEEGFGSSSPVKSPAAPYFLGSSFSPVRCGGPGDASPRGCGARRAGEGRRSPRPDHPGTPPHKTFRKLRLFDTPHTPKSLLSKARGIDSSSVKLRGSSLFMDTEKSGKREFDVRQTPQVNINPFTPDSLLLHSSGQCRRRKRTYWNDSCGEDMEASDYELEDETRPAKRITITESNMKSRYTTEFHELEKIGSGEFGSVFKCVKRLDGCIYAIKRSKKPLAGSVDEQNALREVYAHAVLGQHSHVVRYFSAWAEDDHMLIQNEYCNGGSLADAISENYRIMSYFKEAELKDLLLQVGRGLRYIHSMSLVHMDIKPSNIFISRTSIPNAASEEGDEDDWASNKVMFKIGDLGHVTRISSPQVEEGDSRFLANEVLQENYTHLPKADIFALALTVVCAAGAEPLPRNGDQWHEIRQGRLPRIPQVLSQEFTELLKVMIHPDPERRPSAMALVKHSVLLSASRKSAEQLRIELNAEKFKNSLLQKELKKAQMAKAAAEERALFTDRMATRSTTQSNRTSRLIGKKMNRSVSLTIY

C=CCn1c(=O)c2cnc(Nc3ccc(N4CCN(C)CC4)cc3)nc2n1-c1cccc(-c2cnccn2)n1
AUC(0-t) at 24 h [1]: 4340 ng·h/mL
Activity [2]: 10.1%
Activity [3]: 6.57%
IC50 [4]: 2.1 nM
Activity [5]: 59.1%
Activity [6]: 3.64%
Activity [7]: 6.58%
half-life [8]: 5.94 h
viability at 0.8 µM [9]: 50.9%
Activity [10]: 10.1%
viability at 0.2 µM [11]: 60.6%
Activity [12]: 9.32%
AUC(0-t) at 24 h [13]: 118 ng·h/mL
inhibition [14]: > 90%
Activity [15]: 2.33%
remaining at 1 h [16]: 33.9%
Activity [17]: 59.1%
Activity [18]: 29.2%
inhibition in vivo at 60 mg/kg [19]: 88%
IC50 [20]: 430 nM
Activity [21]: 46.7%
